In patent US20050209278A1, “Piperidinyl- and piperazinyl-sulfonylmethyl hydroxamic acids and their use as protease inhibitors” (priority 2002, published 2005):

Tests used:
MMP-1 = molecular target: T1, MMP-1 (Homo sapiens, UniProt P03956); experiment: In vitro MMP inhibition, Ki determination (fluorogenic substrate II); type: biochemical; details: value not in parenthesis; read-out: MMP-1 Ki
T1 construct: made in house; host or cells: MMP-1-transfected HT-1080 cells (spent media)
T1 sequence (P03956 100-469): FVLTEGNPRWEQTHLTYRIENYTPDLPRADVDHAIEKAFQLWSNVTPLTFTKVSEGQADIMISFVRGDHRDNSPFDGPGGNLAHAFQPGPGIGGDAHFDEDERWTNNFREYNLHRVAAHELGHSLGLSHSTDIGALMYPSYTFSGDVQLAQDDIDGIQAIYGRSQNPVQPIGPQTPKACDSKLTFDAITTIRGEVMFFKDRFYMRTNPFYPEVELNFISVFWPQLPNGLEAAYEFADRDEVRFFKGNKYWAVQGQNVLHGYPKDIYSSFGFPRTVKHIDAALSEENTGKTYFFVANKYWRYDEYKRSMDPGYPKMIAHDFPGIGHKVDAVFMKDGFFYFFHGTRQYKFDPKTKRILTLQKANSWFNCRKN

MMP-13 = molecular target: T2, MMP-13 (Homo sapiens, UniProt P45452); experiment: as above; type: biochemical; details: value not in parenthesis; read-out: MMP-13 Ki
T2 construct: made in house; host or cells: baculovirus / insect cells
Outline: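 Ki determined with human recombinant MMP-13, baculovirus-expressed as proenzyme and activated with APMA. Fluorogenic MCA/Dpa substrate II at 4 μM (at or below Km) with low enzyme in Tris buffer pH 7.5 with CaCl2. Incubation was 1 h at room temperature, with fluorescence read at 330/420 nm.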

Compound | Ki (MMP-1) | Ki (MMP-13)
O=C(NO)C1(S(=O)(=O)N2CCN(c3ccc(OCCN4CCCC4)cc3)CC2)CCOCC1 [Example 162] | > 10000 nM | 7.71 nM
O=C(NO)C1(S(=O)(=O)N2CCN(c3nncs3)CC2)CCOCC1 [Example 215] | > 10000 nM | 1890 nM
CCCC(C)Cc1ccc(N2CCN(S(=O)(=O)C3(C(=O)NO)CCN(CCOC)CC3)CC2)cc1 (centres unmarked) [Example 189] | > 10000 nM | 2.06 nM
CCCCOc1ccc(N2CCN(S(=O)(=O)C3(C(=O)NO)CCN(C(=O)NC(C)(C)C)CC3)CC2)cc1 [Example 240] | > 10000 nM | 0.327 nM
CCCCOc1ccc(N2CCN(S(=O)(=O)C3(C(=O)NO)CCN(c4ccc5c(c4)OCO5)CC3)CC2)cc1 [Example 221] | > 10000 nM | 3.52 nM
CCCCOc1ccc(N2CCN(S(=O)(=O)C3(C(=O)NO)CCN(C(=O)c4ccco4)CC3)CC2)cc1 [Example 156] | > 10000 nM | 0.31 nM
O=C(NO)C1(S(=O)(=O)N2CCN(c3ccc(SC(F)(F)F)cc3)CC2)CCOCC1 [Example 170] | 7810 nM | 0.96 nM
CCCCCc1ccc(N2CCN(S(=O)(=O)C3(C(=O)NO)CCOCC3)CC2)nn1 [Example 197] | > 10000 nM | 6.05 nM
O=C(NO)C1(S(=O)(=O)N2CCN(c3ccccn3)CC2)CCOCC1 [Example 169] | 450 nM | 1.88 nM
O=C(NO)C1(S(=O)(=O)N2CCN(c3cnc(CCC(F)(F)C(F)(F)F)cn3)CC2)CCOCC1 [Example 210] | > 10000 nM | 0.69 nM
CCCCCc1ccc(N2CCN(S(=O)(=O)C3(C(=O)NO)CCN(S(C)(=O)=O)CC3)CC2)cc1 [Example 237] | > 10000 nM | 1.69 nM
O=C(NO)C1(S(=O)(=O)N2CCN(c3cnc(CCC(F)(F)F)cn3)CC2)CCOCC1 [Example 218] | > 10000 nM | 2.03 nM
CCCCOc1ccc(N2CCN(S(=O)(=O)C3(C(=O)NO)CCN(CCOC)CC3)CC2)cn1 [Example 164] | > 10000 nM | 22 nM
CCCCOc1ccc(N2CCN(S(=O)(=O)C3(C(=O)NO)CCN(c4ccsc4)CC3)CC2)cc1 [Example 223] | > 10000 nM | 1.4 nM
COCCN1CCC(C(=O)NO)(S(=O)(=O)N2CCN(c3ccccn3)CC2)CC1 [Example 176] | 1460 nM | 1.73 nM
CCCCOc1ccc(N2CCN(S(=O)(=O)C3(C(=O)NO)CCN(C(=O)N4CCCC4)CC3)CC2)cc1 [Example 231] | > 10000 nM | 0.17 nM
CCCc1cnc(N2CCN(S(=O)(=O)C3(C(=O)NO)CCN(CCOC)CC3)CC2)nc1 [Example 178] | > 10000 nM | 5.26 nM
CCCCc1ccc(N2CCN(S(=O)(=O)C(C)C(=O)NO)CC2)nc1 (centres unmarked) [Example 217] | > 10000 nM | 1.21 nM
O=C(NO)C1(S(=O)(=O)N2CCN(c3ccc(OC(F)(F)C(F)F)cc3)CC2)CCSCC1 [Example 62] | 2310 nM | 0.5 nM
CCCCOc1ccc(N2CCN(S(=O)(=O)C3(C(=O)NO)CCN(c4ccc(C#N)cc4)CC3)CC2)cc1 [Example 225] | > 10000 nM | 5.88 nM

Compound | Ki (MMP-1) | Ki (MMP-13)
CCCCOc1ccc(N2CCN(S(=O)(=O)C3(C(=O)NO)CCN(C(=O)c4cccs4)CC3)CC2)cc1 [Example 160] | > 10000 nM | 0.417 nM
CCCCOc1ccc(N2CCN(S(=O)(=O)C3(C(=O)NO)CCS(=O)(=O)CC3)CC2)cc1 [Example 222] | > 10000 nM | 3.99 nM
CCCCOc1ccc(N2CCN(S(=O)(=O)C3(C(=O)NO)CCN(CCN(CC)CC)CC3)CC2)cc1 [Example 235] | > 10000 nM | 0.3 nM
COCCN1CCC(C(=O)NO)(S(=O)(=O)N2CCN(c3nc4ccccc4o3)CC2)CC1 [Example 196] | > 10000 nM | 56.1 nM
CCc1ccc(N2CCN(S(=O)(=O)C3(C(=O)NO)CCN(CCOC)CC3)CC2)cc1 [Example 193] | 7180 nM | 1.77 nM
CCCCOc1ccc(N2CCN(S(=O)(=O)C3(C(=O)NO)CCN(Cc4ncc[nH]4)CC3)CC2)cc1 [Example 247] | > 10000 nM | 0.166 nM
COCCN1CCC(C(=O)NO)(S(=O)(=O)N2CCN(c3ccc(CC(C)C)cc3)CC2)CC1 [Example 192] | > 10000 nM | 1.93 nM
O=C(NO)C1(S(=O)(=O)N2CCN(c3ccc(OC(F)(F)F)cc3)CC2)CCN(C2CC2)CC1 [Example 203] | 7360 nM | 0.35 nM
CCCCc1ccc(N2CCN(S(=O)(=O)C3(C(=O)NO)CCN(CCOC)CC3)CC2)cc1F [Example 173] | > 10000 nM | 0.696 nM
O=C(NO)C1(S(=O)(=O)N2CCN(c3ccc(OCC(F)(F)C(F)(F)F)cc3)CC2)CCOCC1 [Example 212] | 9810 nM | 0.3 nM
CCCCCCc1ccc(N2CCN(S(=O)(=O)C3(C(=O)NO)CCN(CCOC)CC3)CC2)cc1 [Example 199] | > 10000 nM | 0.397 nM
COCCN1CCC(C(=O)NO)(S(=O)(=O)N2CCN(c3ccccc3)CC2)CC1 [Example 195] | 2980 nM | 8.07 nM
CCCCOc1ccc(N2CCN(S(=O)(=O)C3(C(=O)NO)CCN(C(=O)N(C(C)C)C(C)C)CC3)CC2)cc1 [Example 244] | > 10000 nM | 0.57 nM
O=C(NO)C1(S(=O)(=O)N2CCN(c3cnc(CCCC(F)(F)F)cn3)CC2)CCOCC1 [Example 209] | > 10000 nM | 3.32 nM
CCCCOc1ccc(N2CCN(S(=O)(=O)C3(C(=O)NO)CCN(c4ncccn4)CC3)CC2)cc1 [Example 159] | > 10000 nM | 0.587 nM
COCCN1CCC(C(=O)NO)(S(=O)(=O)N2CCN(c3ccc(Br)cc3)CC2)CC1 [Example 201] | 2730 nM | 1.36 nM
CCCCOc1ccc(N2CCN(S(=O)(=O)C3(C(=O)NO)CCN(C(=O)N4CCCCC4)CC3)CC2)cc1 [Example 243] | > 10000 nM | 0.24 nM
CCCCOc1ccc(N2CCN(S(=O)(=O)C3(C(=O)NO)CCN(c4ccc(OC)cc4)CC3)CC2)cc1 [Example 249] | > 10000 nM | 2.46 nM
CCCCOc1ccc(N2CCN(S(=O)(=O)C3(C(=O)NO)CCN(C(=O)N4CCN(C)CC4)CC3)CC2)cc1 [Example 230] | > 10000 nM | 0.27 nM
CC(C)Cc1ccc(N2CCN(S(=O)(=O)C3(C(=O)NO)CCOCC3)CC2)c(F)c1 [Example 213] | > 10000 nM | 16.1 nM

Compound | Ki (MMP-1) | Ki (MMP-13)
CCCCOc1ccc(N2CCN(S(=O)(=O)C3(C(=O)NO)CCN(CCCC(F)(F)F)CC3)CC2)cc1 [Example 238] | > 10000 nM | 0.53 nM
CCCc1ccc(N2CCN(S(=O)(=O)C3(C(=O)NO)CCN(CCOC)CC3)CC2)cc1 [Example 200] | > 10000 nM | 1.61 nM
CCCCOc1ccc(N2CCN(S(=O)(=O)C3(C(=O)NO)CCN(Cc4nccn4C)CC3)CC2)cc1 [Example 245] | > 10000 nM | 0.177 nM
CCCCc1nnc(N2CCN(S(=O)(=O)C3(C(=O)NO)CCOCC3)CC2)s1 [Example 214] | > 10000 nM | 482 nM
CCCCOc1ccc(N2CCN(S(=O)(=O)C3(C(=O)NO)CCN(c4ccc(N(C)C)cc4)CC3)CC2)cc1 [Example 241] | > 10000 nM | 1.06 nM
CCCCOc1ccc(N2CCN(S(=O)(=O)C3(C(=O)NO)CCN(c4nccs4)CC3)CC2)cc1 [Example 157] | > 10000 nM | 1.02 nM
O=C(NO)C1(S(=O)(=O)N2CCN(c3ccc(Cl)nn3)CC2)CCOCC1 [Example 198] | 8650 nM | 59.9 nM
CCCCOc1ccc(N2CCN(S(=O)(=O)C3(C(=O)NO)CCSCC3)CC2)cc1 [Example 232] | > 10000 nM | 0.56 nM
CCCCOc1ccc(N2CCN(S(=O)(=O)C3(C(=O)NO)CCN(CCN4CCOCC4)CC3)CC2)cc1 [Example 233] | > 10000 nM | 0.26 nM
CCCCCc1ccc(N2CCN(S(=O)(=O)C3(C(=O)NO)CCN(S(N)(=O)=O)CC3)CC2)cc1 [Example 205] | > 10000 nM | 2.4 nM
Cc1ccc(N2CCC(C(=O)NO)(S(=O)(=O)N3CCN(c4ccc(OCCCC(F)(F)F)cc4)CC3)CC2)cc1 [Example 161] | > 10000 nM | 2.91 nM
COCCN1CCC(C(=O)NO)(S(=O)(=O)N2CCN(c3ccc(OCC(C)C)c(F)c3)CC2)CC1 [Example 166] | > 10000 nM | 0.71 nM
CCCCOc1ccc(N2CCN(S(=O)(=O)C3(C(=O)NO)CCN(c4ccc(OC(F)(F)C(F)F)cc4)CC3)CC2)cc1 [Example 65] | > 10000 nM | 32.7 nM
CCCCCc1cnc(N2CCN(S(=O)(=O)C3(C(=O)NO)CCOCC3)CC2)cn1 [Example 219] | > 10000 nM | 1.11 nM
COCCN1CCC(C(=O)NO)(S(=O)(=O)N2CCN(c3ccc(C)cc3)CC2)CC1 [Example 194] | 7730 nM | 4.06 nM
COCCN1CCC(C(=O)NO)(S(=O)(=O)N2CCN(c3ccc(CCCCC(C)C)cc3)CC2)CC1 [Example 191] | > 10000 nM | 0.578 nM
O=C(NO)C1(S(=O)(=O)N2CCN(c3ccc(COCC(F)(F)C(F)(F)F)cc3)CC2)CCOCC1 [Example 70] | > 10000 nM | 0.61 nM
CCC(C)Cc1ccc(N2CCN(S(=O)(=O)C3(C(=O)NO)CCN(CCOC)CC3)CC2)cc1 (centres unmarked) [Example 190] | > 10000 nM | 0.842 nM
